# Test system: not given
# Assay: not given
# Details: not given
row,melting point,SMILES
1,81.2 to 83.6 °C,CCOc1ccc(-c2nc(C3=CCN(C)CC3)cs2)cc1OCC
2,195 °C (dec.),CCOc1ccc(-c2nc(-c3cccc(CN(C)C)n3)cs2)cc1OCC.Cl.Cl
3,93 to 94 °C,CCOc1ccc(-c2nc(-c3ccc(NCCN4CCCCC4)c(C(=O)OC)c3)cs2)cc1OCC.Cl.Cl
4,101.3 to 103 °C,CCOc1ccc(-c2nc(-c3ccc(O[Si](C)(C)C(C)(C)C)c(CO)c3)cs2)cc1OCC
5,119 to 120 °C,"CCOc1ccc(-c2nc(-c3ccc(N4CCOCC4)c([N+](=O)[O-])c3)cs2)cc1OCC [Example 242, 4-(4-morpholino-3-nitrophenyl)-2-(-3,4-diethoxyphenyl) thiazole]"
6,118 to 119 °C,"C=CCc1cc(-c2csc(-c3ccc(OCC)c(OCC)c3)n2)cc(C(=O)OC)c1O [Example 353, 2-(3,4-diethoxyphenyl)-4-(3-methoxycarbonyl-4-hydroxy-5-allylphenyl)thiazole]"
7,108 to 109 °C,"CCOc1ccc(-c2nc(-c3ccc(SC(=O)N(C)C)c(C(=O)OC)c3)cs2)cc1OCC [Example 354, 2-(3,4-diethoxyphenyl)-4-(4-dimethylaminocarbonylthio-3-methoxycarbonylphenyl)thiazole]"

# The next lines start with the compound.
row,SMILES,melting point
1,COc1ccc(-c2nc(-c3ccc4c(c3)CCCN4)cs2)cc1OC.Cl,156 to 158 °C
2,COc1ccc(-c2nc(-c3cc(N)cc(N)c3)cs2)cc1OC.Cl.Cl,198 to 200 °C
3,CCOc1ccc(-c2nc(-c3ccc(O)c(CC)c3)c(CN(C)C)s2)cc1OCC.Cl.Cl,163 to 168 °C
4,"COc1ccc(-c2nc(-c3ccc(O)c(O)c3)cs2)cc1OC.Cl [Example 1, 2-(3,4-dimethoxyphenyl)-4-(3,4-dihydroxyphenyl) thiazole hydrochloride]",146 to 148 °C
5,"COc1ccc(-c2nc(-c3ccc4c(c3)CCC(=O)N4)co2)cc1OC [Example 137, 2-(3,4-dimethoxyphenyl)-4-(3,4-dihydrocarbostyril-6-yl) oxazole]",191 to 192 °C
6,"[O-][n+]1cccc(-c2nc(-c3ccccc3)cs2)c1 [Example 139, 3-(4-phenylthiazol-2-yl) pyridine-N-oxide]",140 to 141 °C
7,"O=c1[nH]cccc1-c1nc(-c2ccccc2)cs1 [Example 140, 2-(2-oxopyridin-3-yl)4-phenylthiazole]",206 to 207 °C (dec.)
8,"COc1ccc(-c2nc(-c3ccc4c(c3)N(C)C(=O)CS4)cs2)cc1OC [Example 143, 2-(3,4-dimethoxyphenyl)-4-(4-methyl-2H-1,4-benzothiazin-3(4H)-one-6-yl)thiazole]",143.5 to 144 °C
9,"COc1ccc(-c2nc(-c3ccc4c(c3)CCCN4C(=O)c3ccccc3)cs2)cc1OC [Example 144, 2-(3,4-dimethoxyphenyl)-4-(1-benzoyl-1,2,3,4-tetrahydroquinolin-6-yl)thiazole]",152.5 to 153.5 °C
10,"COc1ccc(-c2nc(-c3ccc4oc(=O)[nH]c4c3)cs2)cc1OC [Example 145, 2-(3,4-dimethoxyphenyl)-4-(benzoxazol-2-on-5-yl) thiazole]",271 to 272 °C
11,"O=C1CCc2cc(-c3csc(-c4ccc(C(=O)O)cc4)n3)ccc2N1 [Example 147, 2-(4-carboxyphenyl)-4-(3,4-dihydrocarbostyril-6-yl)thiazole]",≥ 300 °C
12,"NC(=O)c1ccc(-c2nc(-c3ccc4c(c3)CCC(=O)N4)cs2)cc1 [Example 148, 2-(4-carbamoylphenyl)-4-(3,4-dihydrocarbostyril-6-yl)thiazole]",≥ 300 °C
13,"COc1cc(-c2nc(-c3ccc4c(c3)CCC(=O)N4)cs2)ccc1[S+](C)[O-] (centres unmarked) [Example 149, 2-(3-methoxy-4-methylsulfinylphenyl)-4-(3,4-dihydrocarbostyril-6-yl)thiazole]",264 to 265 °C
14,"COc1cc(-c2nc(-c3ccc4c(c3)CCC(=O)N4)cs2)ccc1S(C)(=O)=O [Example 150, 2-(3-methoxy-4-methylsulfonylphenyl)-4-(3,4-dihydrocarbostyril-6-yl)thiazole]",284 to 286 °C
15,"COc1ccc(C(O)c2nc(-c3ccc4[nH]c(=O)c(O)c(O)c4c3)cs2)cc1OC (centres unmarked) [Example 151, 2-[1-(3,4-dimethoxyphenyl)-1-hydroxymethyl]-4-(3,4-dihydroxycarbostyril-6-yl)thiazole]",188 to 189 °C
16,"COc1ccc(C(=O)c2nc(-c3ccc4[nH]c(=O)c(O)c(O)c4c3)cs2)cc1OC [Example 152, 2-(3,4-dimethoxybenzoyl)-4-(3,4-dihydroxycarbostyril-6-yl) thiazole]",249 to 251 °C
17,"CCOc1ccc(-c2nc(-c3ccc(O[C@@H]4O[C@H](CO)[C@@H](O)[C@H](O)[C@H]4O)cc3)cs2)cc1OCC [Example 237, 4-[4-(β-D-glucopyranosyloxy)-phenyl]-2-(3,4-diethoxyphenyl)thiazole]",138 to 140 °C
18,"COc1ccc(-c2nc(-c3ccc(OS(=O)(=O)O)cc3)cs2)cc1OC [Example 238, 4-(4-hydroxysulfonyloxyphenyl)-2-(3,4-dimethoxyphenyl)thiazole]",248 to 249 °C
19,"CCOc1ccc(C(=O)c2csc(-c3ccc(OCC)c(OCC)c3)n2)cc1OCC [Example 246, 2-(3,4-diethoxyphenyl)-4-(3,4-diethoxybenzoyl)thiazole]",128 to 129 °C
20,"CCOc1ccc(-c2nc(C=Cc3ccccc3)cs2)cc1OCC [Example 247, 2-(3,4-diethoxyphenyl)-4-styrylthiazole]",94 to 95 °C

# Test system: human neutrophilic leukocytes
# Assay: Inhibition of superoxide radical (O2-) generation in FMLP-stimulated human neutrophilic leukocytes (ferricytochrome C method)
# Assay type: cell-based
# Details: Homo sapiens, Leukocyte, pH 7.4, Table 15; O2- generation, 3x10^-7 M FMLP, cytochalasin B, 37° C., pH 7.4
# From the text: (1) Activity for inhibiting the generation of superoxide radical (O2^−) in human neutrophilic leukocytes
# That is, a whole blood obtained from a healthy adult and treated by anticoagulation method was subjected to a dextranhypotonic treatment to obtain leukocyte cells. The leukocyte cells were then subjected to a density gradient ultracentrifugation by Ficoll-Paque to obtain a neutrophilic leukocyte fraction.
# O2^− generation was examined by the ferricytochrome C method in accordance with the method of B. N. Cronstein et al. [Journal of Experimental Medicine, vol. […] Each test compound was dissolved in dimethyl sulfoxide (DMSO); the solution was added to neutrophilic leukocytes before the addition of FMLP; then, the neutrophilic leukocytes were pre-incubated at 37° C.
row,IC50 [nM],SMILES
1,4.7,"CC=Cc1cc(-c2csc(-c3ccc(OCC)c(OCC)c3)n2)cc(C(=O)O)c1O [compound 140, 2-(3,4-Diethoxyphenyl)-4-[3-carboxy-4-hydroxy-5-(1-propenyl)phenyl]thiazole]"
2,94,"CCOc1ccc(-c2nc(-c3cnc(C)c(C(=O)O)c3)cs2)cc1OCC [compound 141, 2-(3,4-Diethoxyphenyl)-4-(2-methyl-3-carboxy-5-pyridyl)thiazole]"
3,120,"CCOc1ccc(-c2nc(-c3cc(C=O)c(O)c(C(=O)O)c3)cs2)cc1OCC [compound 142, 2-(3,4-Diethoxyphenyl)-4-(3-carboxy-4-hydroxy-5-formylphenyl)thiazole]"
4,270,"CCOc1ccc(-c2nc(-c3ccc(C(=O)O)cn3)cs2)cc1OCC [compound 143, 2-(3,4-Diethoxyphenyl)-4-(3-carboxy-6-pyridyl)-thiazole]"
5,35,"CCOc1ccc(-c2nc(-c3ccc(C(=O)O)nc3)cs2)cc1OCC [compound 144, 2-(3,4-Diethoxyphenyl)-4-(2-carboxy-5-pyridyl)-thiazole]"
6,110,"CCOc1ccc(-c2nc(-c3cc(Br)c(O)c(C(=O)O)c3)cs2)cc1OCC [compound 145, 2-(3,4-Diethoxyphenyl)-4-(3-carboxy-4-hydroxy-5-bromophenyl)thiazole]"
7,110,"CCOc1ccc(-c2nc(-c3ccc(N(C)C)c(C(=O)O)c3)cs2)cc1OCC [compound 146, 2-(3,4-Diethoxyphenyl)-4-(3-carboxy-4-dimethylaminophenyl)thiazole]"
8,10,"C=Cc1cc(-c2csc(-c3ccc(OCC)c(OCC)c3)n2)cc(C(=O)O)c1O [compound 147, 2-(3,4-Diethoxyphenyl)-4-(3-carboxy-4-hydroxy-5-vinylphenyl)thiazole]"
